Assay results taken from patent US10299714B2, “Blood collection devices containing blood stabilization agent including variegin or analog thereof and/or a polysulfated disaccharide” (Becton, Dickinson and Company, priority 2010, dated 2019).

Tests used:
platelets = experiment: Whole blood impedance aggregometry (Multiplate): platelet aggregation after room temperature storage of drawn blood; type: cell-based, human; conditions: for Time after blood draw where aggregation was still measurable above baseline: Table 5, collagen and/or ADP
Excerpt: The blood was allowed to stand at room temperature, in undisturbed aliquots, until tested at the times indicated. Samples were inverted several times immediately prior to testing, to re-suspend blood cells that naturally settle over time.
Measurements: Testing of platelet function (which in this experiment, was aggregation activity) was done using the Multiplate instrument (Verum Diagnostics, Munich, Germany), which uses whole blood as the sample and an increase in impedance as the measurement of platelet aggregation. The instrument was used per manufacturer's instructions. Briefly, 300 microliters of isotonic saline was warmed in each reaction cuvette, and to this was added 300 microliters of the whole blood sample. In reactions where aspirin or other platelet antagonists (inhibitors) were added in vitro, 20 microliters (μL) of a stock solution of aspirin was spiked into the samples. The aggregation reaction was initiated by addition of a platelet agonist, in this case collagen, at 3.2 μg/ml and volume (20 μl) per manufacturer's instructions. Upon addition of the collagen, the impedance measurements began automatically, and were continued for 6 minutes, representing the full course along the x-axis in the graphs shown in FIG. 2. The graphs show platelet aggregation, as reported by impedance, as an arbitrary unitless measurement on the y-axis, over the 6-minute run time on the x-axis. Traces shown are raw platelet aggregation data delivered from the instrument. […] Representative data are shown for blood that dwells at room temperature after the initial draw for 1 hr, 24 hr, 48 hr, and 72 hr. Data are shown for the blood itself, as well for blood pre-treated with aspirin to inhibit platelet function immediately prior to testing.
The experiments were performed as described in Example 1. In this case, the data are plotted as a function of time that the blood sample dwells outside of the body (x-axis) versus platelet function as shown as the area under the curve (AUC) as one representation of the platelet aggregation signal. AUC is the integrated signal from the raw data traces shown in Example 1, and also is reported as a unitless measurement. The effective background level of the instrument is drawn as a dashed line across the bottom of the graph. Any AUC measurement of aggregation at or below this level was considered so weak as to be unreportable, essentially representing a “null” data level.
(§1) Relative stability of platelets was examined with respect to a range of concentrations of variegin (SEQ ID NO:1). Experiments were performed as described above, using either collagen or adenosine diphosphate (ADP) as agonists, all per manufacturer's recommended protocols. Table 2 lists a qualitative assessment of stability, namely how long after initially drawing the blood was platelet aggregation measureable above the effective instrument baseline, the time to first visual observation of clotted, insoluble material in the whole blood sample, and an assessment of the severity or extent of the presence of this insoluble material was also recorded.
These peptides were used as the blood stabilization agent, and were spiked into blood immediately after collection into an empty, evacuated blood collection tube, achieving a final concentration of 150 μM. The blood was allowed to dwell in a whole-blood state at room temperature, until assayed for platelet aggregation potential, all as described in Example 1. Agonists used included collagen and ADP, following manufacturer's instructions.

whole blood sample [1] = experiment: Visual inspection of stored whole blood sample for clotted, insoluble material; parameters: species or system human
Experimental: as §1
These peptides were used as the blood stabilization agent, and were spiked into blood immediately after collection into an empty, evacuated blood collection tube, achieving a final concentration of 150 μM. The blood was allowed to dwell in a whole-blood state at room temperature, until assayed for platelet aggregation potential, all as described in Example 1. Agonists used included collagen and ADP, following manufacturer's instructions. Table 4 lists a qualitative assessment of stability, namely how long after initially drawing the sample was platelet aggregation measureable above the effective instrument baseline. Additionally, the time to first visual observation of clotted, insoluble material in the whole blood sample, and an assessment of the severity or extent of the presence of this insoluble material was also recorded. In some cases, only visual characterization of the amount of insoluble material was reported, without having performed any platelet aggregation measurements.
(§2) The results are shown in Table 5 which lists additives alone or in combination that were spiked into freshly drawn whole blood samples. […] For some of the conditions tested, only a subset of these three parameters was recorded.

whole blood sample [2] = experiment: Visual inspection of stored whole blood sample for hemolysis; type: cell-based, human
Excerpt: Skilled practitioners will appreciate the hemolyzed samples are an obvious visual clue that damage to blood cells has occurred, either during the collection, transport, or storage of blood samples. Although hemolysis is not necessarily detrimental to any one clinical assay, it is a well known interference for some tests, and thus it is preferable to avoid causing hemolysis. Hemolysis can be measured by visual scale (e.g., mild or slightly pink, moderate or noticeably red, or severe or dark red). Hemolysis can also be measured by spectroscopic measurement of the red color of the hemoglobin itself, and can be reported by the concentration of hemoglobin released into the serum or plasma (e.g., such that less than about 20 mg/dL concentration of released hemoglobin, or to an extent that the hemoglobin concentration cannot be measured visually or by spectroscopy represents “minor or negligible” hemolysis, about 20 to about 100 mg/dL represents “mild” hemolysis, about 100 to about 300 represents “moderate” hemolysis, or greater than about 300 mg/dL represents “severe” hemolysis).
as §2

thrombin = thrombin (Homo sapiens, UniProt P00734); conditions: reported in Koh; cited from earlier work
[3] = relatively high concentration, used alone

Compound	Time after blood draw where aggregation was still measurable above baseline (platelets; additive alone at 50 μM)	Time after blood draw where aggregation was still measurable above baseline (platelets; additive alone at 75 μM)	Time after blood draw where aggregation was still measurable above baseline (platelets; additive alone at 100 μM)	time for stability of the sample for platelet aggregation measurements (platelets; [3])	onset of clotting (whole blood sample [1]; [3])	Visual inspection for hemolysis (whole blood sample [2]; Table 5, additive alone at 100 μM)	hemolysis (whole blood sample [2]; [3])	time after blood draw to solid clotting of the sample (whole blood sample [1]; peptide 150 μM, room temperature)	thrombin inhibition for therapeutic purposes (thrombin)
C[C@@H]1CCN(C(=O)[C@H](CCCN=C(N)N)NS(=O)(=O)c2cccc3c2NC[C@H](C)C3)[C@@H](C(=O)O)C1 [Argatroban, (2R,4R)-1-[(2S)-5-(diaminomethylideneamino)-2-[[(3R)-3-methyl-1,2,3,4-tetrahydroquinolin-8-yl]-sulfonylamino]pentanoyl]-4-methyl-piperidine-2-carboxylic acid, reference compound]	30 h	24 h	24 h	less time for stability of the sample for platelet aggregation measurements	faster onset of clotting	Extensive	extensive amounts of hemolysis		
MHKTAPPFDFEAIPEEYLDDES (Synthetic Peptide Variegin Fragment) [Ct22]								clots solidly within one hour	effective thrombin inhibitor
